# ChEMBL document CHEMBL1135331, “Synthesis and characterization of a new RXR agonist based on the 6-tert-butyl-1,1-dimethylindanyl structure” (Bioorg Med Chem Lett, 2002)
# Target: T1, Retinoic acid receptor RXR-alpha (Homo sapiens, UniProt P19793)
# T1 sequence (P19793 whole entry): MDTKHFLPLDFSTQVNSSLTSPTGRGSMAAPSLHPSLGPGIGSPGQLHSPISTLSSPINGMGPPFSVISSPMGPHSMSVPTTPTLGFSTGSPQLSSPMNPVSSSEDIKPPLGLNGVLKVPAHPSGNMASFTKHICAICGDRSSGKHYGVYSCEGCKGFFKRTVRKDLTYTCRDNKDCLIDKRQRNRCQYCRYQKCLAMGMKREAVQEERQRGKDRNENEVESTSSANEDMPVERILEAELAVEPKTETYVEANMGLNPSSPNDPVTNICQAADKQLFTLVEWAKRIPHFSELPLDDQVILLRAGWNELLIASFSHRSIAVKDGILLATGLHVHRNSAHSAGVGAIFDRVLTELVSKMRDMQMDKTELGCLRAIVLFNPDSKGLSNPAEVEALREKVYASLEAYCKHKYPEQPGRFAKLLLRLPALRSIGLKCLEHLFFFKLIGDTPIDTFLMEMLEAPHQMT
# Test: Dissociation constant for binding to Retinoic acid receptor RXR-alpha
compound,measurement,value
C=C(/C=C/C=C/C(=O)O)c1cc(C(C)(C)C)cc2c1CCC2(C)C,Kd,0.22 µM
